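Five concentrations, 48 hours, 96-well plates. TGI denotes the concentration required for complete inhibition of growth.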

One test has as its system DLD-1 colon. As to the kind of experiment: NCI tumour cell line growth inhibition, 48 h.
`O=C(O)C(SC(=S)c1ccc(C(=S)SC(C(=O)O)c2ccccc2)cc1)c1ccccc1` (stereo not drawn) gave a TGI above 100 µM.

Consider `C/C(=N\NS(=O)(=O)c1ccc(C)cc1)C(CN1CCCCC1)C(c1ccccc1)c1c(O)c2ccccc2oc1=O` (stereo not drawn), for which the TGI was above 100 µM.

`OC(c1ccccc1)(c1ccccc1)c1ccncc1` had a TGI above 100 µM.

For `O=C(Nc1ccc(Cl)cc1)c1cc2cc(N=Nc3ccccc3Cl)ccc2oc1=O`, the TGI was 32.2 µM.

The test system of a further test is SF-268 CNS. As to the kind of experiment: NCI tumour cell line growth inhibition, 48 h.
The compound `O=C(O)C(SC(=S)c1ccc(C(=S)SC(C(=O)O)c2ccccc2)cc1)c1ccccc1` (stereo not drawn) returned a TGI above 100 µM.

For `C/C(=N\NS(=O)(=O)c1ccc(C)cc1)C(CN1CCCCC1)C(c1ccccc1)c1c(O)c2ccccc2oc1=O` (stereo not drawn), the TGI is above 100 µM.

`OC(c1ccccc1)(c1ccccc1)c1ccncc1` gave a TGI above 100 µM.

Compound `O=C(Nc1ccc(Cl)cc1)c1cc2cc(N=Nc3ccccc3Cl)ccc2oc1=O` registered a TGI above 100 µM.

A further test concerns NCI-H522 lung. As to the kind of experiment: NCI tumour cell line growth inhibition, 48 h.
`C/C(=N\NS(=O)(=O)c1ccc(C)cc1)C(CN1CCCCC1)C(c1ccccc1)c1c(O)c2ccccc2oc1=O` (stereo not drawn) yielded a TGI above 100 µM.

`OC(c1ccccc1)(c1ccccc1)c1ccncc1` came in with a TGI above 100 µM.

`O=C(Nc1ccc(Cl)cc1)c1cc2cc(N=Nc3ccccc3Cl)ccc2oc1=O` returned a TGI of 53.2 µM.

A further test relates to SF-295 CNS. As to the kind of experiment: NCI tumour cell line growth inhibition, 48 h.
The compound `O=C(O)C(SC(=S)c1ccc(C(=S)SC(C(=O)O)c2ccccc2)cc1)c1ccccc1` (stereo not drawn) yielded a TGI above 100 µM.

In turn, `C/C(=N\NS(=O)(=O)c1ccc(C)cc1)C(CN1CCCCC1)C(c1ccccc1)c1c(O)c2ccccc2oc1=O` (stereo not drawn) showed a TGI above 100 µM.

`OC(c1ccccc1)(c1ccccc1)c1ccncc1` returned a TGI above 100 µM.

In turn, `O=C(Nc1ccc(Cl)cc1)c1cc2cc(N=Nc3ccccc3Cl)ccc2oc1=O` had a TGI of 91.9 µM.

The next test concerns KM20L2 colon. As to the kind of experiment: NCI tumour cell line growth inhibition, 48 h.
For the compound `C/C(=N\NS(=O)(=O)c1ccc(C)cc1)C(CN1CCCCC1)C(c1ccccc1)c1c(O)c2ccccc2oc1=O` (stereo not drawn), the TGI was above 100 µM.

`OC(c1ccccc1)(c1ccccc1)c1ccncc1` had a TGI above 100 µM.

In the case of `O=C(Nc1ccc(Cl)cc1)c1cc2cc(N=Nc3ccccc3Cl)ccc2oc1=O`, the TGI worked out at 46.8 µM.

Another test relates to TK-10 renal. As to the kind of experiment: NCI tumour cell line growth inhibition, 48 h.
With `O=C(O)C(SC(=S)c1ccc(C(=S)SC(C(=O)O)c2ccccc2)cc1)c1ccccc1` (stereo not drawn), the TGI was above 100 µM.

Compound `C/C(=N\NS(=O)(=O)c1ccc(C)cc1)C(CN1CCCCC1)C(c1ccccc1)c1c(O)c2ccccc2oc1=O` (stereo not drawn) showed a TGI above 100 µM.

With `OC(c1ccccc1)(c1ccccc1)c1ccncc1`, the TGI is above 100 µM.

With `O=C(Nc1ccc(Cl)cc1)c1cc2cc(N=Nc3ccccc3Cl)ccc2oc1=O`, the TGI came to 89.4 µM.

For another test, the system named is M19-MEL melanoma. As to the kind of experiment: NCI tumour cell line growth inhibition, 48 h.
`OC(c1ccccc1)(c1ccccc1)c1ccncc1` showed a TGI above 100 µM.

For `O=C(Nc1ccc(Cl)cc1)c1cc2cc(N=Nc3ccccc3Cl)ccc2oc1=O`, the TGI came out at 53 µM.

The test system of the next test is ACHN renal. Nature of the test: NCI tumour cell line growth inhibition, 48 h.
`O=C(O)C(SC(=S)c1ccc(C(=S)SC(C(=O)O)c2ccccc2)cc1)c1ccccc1` (stereo not drawn): the TGI was above 100 µM.

Consider `C/C(=N\NS(=O)(=O)c1ccc(C)cc1)C(CN1CCCCC1)C(c1ccccc1)c1c(O)c2ccccc2oc1=O` (stereo not drawn), for which the TGI is above 100 µM.

`OC(c1ccccc1)(c1ccccc1)c1ccncc1` yielded a TGI above 100 µM.

For the compound `O=C(Nc1ccc(Cl)cc1)c1cc2cc(N=Nc3ccccc3Cl)ccc2oc1=O`, the TGI was above 100 µM.

The next test deals with NCI-H23 lung. Nature of the test: NCI tumour cell line growth inhibition, 48 h.
Take `O=C(O)C(SC(=S)c1ccc(C(=S)SC(C(=O)O)c2ccccc2)cc1)c1ccccc1` (stereo not drawn): the TGI was above 100 µM.

Consider `C/C(=N\NS(=O)(=O)c1ccc(C)cc1)C(CN1CCCCC1)C(c1ccccc1)c1c(O)c2ccccc2oc1=O` (stereo not drawn), for which the TGI was above 100 µM.

`OC(c1ccccc1)(c1ccccc1)c1ccncc1` yielded a TGI above 100 µM.

With `O=C(Nc1ccc(Cl)cc1)c1cc2cc(N=Nc3ccccc3Cl)ccc2oc1=O`, the TGI is 34.5 µM.

Another test relates to HCT-15 colon. As to the kind of experiment: NCI tumour cell line growth inhibition, 48 h.
Compound `O=C(O)C(SC(=S)c1ccc(C(=S)SC(C(=O)O)c2ccccc2)cc1)c1ccccc1` (stereo not drawn) registered a TGI above 100 µM.

`C/C(=N\NS(=O)(=O)c1ccc(C)cc1)C(CN1CCCCC1)C(c1ccccc1)c1c(O)c2ccccc2oc1=O` (stereo not drawn) registered a TGI above 100 µM.

`OC(c1ccccc1)(c1ccccc1)c1ccncc1`: the TGI is above 100 µM.

Compound `O=C(Nc1ccc(Cl)cc1)c1cc2cc(N=Nc3ccccc3Cl)ccc2oc1=O` gave a TGI of 24.1 µM.

For another test, the system named is HL-60(TB) leukemia. As to the kind of experiment: NCI tumour cell line growth inhibition, 48 h.
For `O=C(O)C(SC(=S)c1ccc(C(=S)SC(C(=O)O)c2ccccc2)cc1)c1ccccc1` (stereo not drawn), the TGI is above 100 µM.

`C/C(=N\NS(=O)(=O)c1ccc(C)cc1)C(CN1CCCCC1)C(c1ccccc1)c1c(O)c2ccccc2oc1=O` (stereo not drawn) gave a TGI above 100 µM.

In the case of `OC(c1ccccc1)(c1ccccc1)c1ccncc1`, the TGI is above 100 µM.

In turn, `O=C(Nc1ccc(Cl)cc1)c1cc2cc(N=Nc3ccccc3Cl)ccc2oc1=O` returned a TGI of 10.3 µM.

The subject of another test is RXF 393 renal. As to the kind of experiment: NCI tumour cell line growth inhibition, 48 h.
`O=C(O)C(SC(=S)c1ccc(C(=S)SC(C(=O)O)c2ccccc2)cc1)c1ccccc1` (stereo not drawn) showed a TGI above 100 µM.

The compound `C/C(=N\NS(=O)(=O)c1ccc(C)cc1)C(CN1CCCCC1)C(c1ccccc1)c1c(O)c2ccccc2oc1=O` (stereo not drawn) returned a TGI above 100 µM.

For the compound `OC(c1ccccc1)(c1ccccc1)c1ccncc1`, the TGI is above 100 µM.

`O=C(Nc1ccc(Cl)cc1)c1cc2cc(N=Nc3ccccc3Cl)ccc2oc1=O` showed a TGI above 100 µM.

In a further test the test system is SW-620 colon. As to the kind of experiment: NCI tumour cell line growth inhibition, 48 h.
In turn, `O=C(O)C(SC(=S)c1ccc(C(=S)SC(C(=O)O)c2ccccc2)cc1)c1ccccc1` (stereo not drawn) displayed a TGI above 100 µM.

`C/C(=N\NS(=O)(=O)c1ccc(C)cc1)C(CN1CCCCC1)C(c1ccccc1)c1c(O)c2ccccc2oc1=O` (stereo not drawn) displayed a TGI above 100 µM.

In turn, `OC(c1ccccc1)(c1ccccc1)c1ccncc1` gave a TGI above 100 µM.

`O=C(Nc1ccc(Cl)cc1)c1cc2cc(N=Nc3ccccc3Cl)ccc2oc1=O` displayed a TGI above 100 µM.

In another test the test system is U251 CNS. As to the kind of experiment: NCI tumour cell line growth inhibition, 48 h.
Consider `O=C(O)C(SC(=S)c1ccc(C(=S)SC(C(=O)O)c2ccccc2)cc1)c1ccccc1` (stereo not drawn), for which the TGI was above 100 µM.

`C/C(=N\NS(=O)(=O)c1ccc(C)cc1)C(CN1CCCCC1)C(c1ccccc1)c1c(O)c2ccccc2oc1=O` (stereo not drawn) displayed a TGI above 100 µM.

Regarding `OC(c1ccccc1)(c1ccccc1)c1ccncc1`, the TGI is above 100 µM.

The compound `O=C(Nc1ccc(Cl)cc1)c1cc2cc(N=Nc3ccccc3Cl)ccc2oc1=O` displayed a TGI of 51 µM.

In another test the test system is IGROV1 ovarian. As to the kind of experiment: NCI tumour cell line growth inhibition, 48 h.
`O=C(O)C(SC(=S)c1ccc(C(=S)SC(C(=O)O)c2ccccc2)cc1)c1ccccc1` (stereo not drawn): the TGI is above 100 µM.

Values taken from PubChem BioAssay (NCI).
